Key:
[1] = system: ERK1/2; experiment: Immunoblot of phospho-ERK1/2 in MM.1 S cells; type: cell-based; conditions: 10 μM
Experimental: 5×10^6 were cells treated with 10 μM 8-NH2-Ado for the indicated times and harvested. Cell pellets were washed with cold phosphate-buffered saline (PBS; 8.1 g NaCl, 1.14 g Na2HPO4, 0.22 g KCl, and 0.25 g/L KH2PO4) and incubated with lysis buffer (50 mM HEPES, 150 mM NaCl, 1.5 mM MgCl2, 1 mM EDTA pH 8.0, 100 mM NaFI, 10 mM Na Pyrophosphate, 500 μM PMSF, 0.5% Triton X-100, 10% glycerol) at 4° C. for one hour. Lysates were centrifuged at 4° C. for 1 minute at 9000×g, and the supernatants were collected and stored at −20° C. Protein concentration was determined by Bio-Rad protein assay (BioRad Laboratories, Hercules, Calif.). Protein, at a concentration of 30 μg, was mixed with sample buffer (125 mM Tris, pH 6.8, 4% SDS, 20% glycerol, 100 mM Dithiothreitol (DTT), and 0.05% bromophenol blue), and fractionated on a pre-cast 8-16% Tris-Glycine gel (Invitrogen/Novex, Carlsbad, Calif.). Proteins were then transferred to a Polyvinylidene Fluoride (PVDF) membrane (Immobilon-P, Millipore, Bedford, Mass.): Following protein transfer, membranes were blocked with 5% non-fat milk in PBS-T (PBS with 0.1% Tween), incubated with the primary antibody overnight at 4° C. and subsequently with horseradish peroxidase linked secondary antibody (Amersham, Arlington Heights, Ill.). Blots were developed using ECL Plus Chemiluminescent Western Blotting Detection reagent (Amersham, Arlington Heights, Ill.) and the signal was visualized with X-ray film (Hyperfilm, Amersham, Arlington Heights, Ill.). For reprobing purposes, blots were stripped using Restore Western Blot Stripping Buffer from Pierce Biotechnology (Rockford, Ill.). Phospho-MKK3/6 (Ser189/207), phospho-p38 (Thr180/Tyr182), phospho-ATF-2 (Thr69/71), phospho-c-Raf (Ser259), phospho-MEK1/2 (Ser217/221), total MEK1/2, phospho-ERK1/2 (Thr202/Tyr204), total ERK1/2, phospho-p90RSK (Ser380), total RSK, phospho-PDK1 (Ser241), total PDKI, phospho-PTEN (Ser380), total PTEN, phospho-Akt (Ser473), total Akt, phospho-GSK-3β (Ser9), total GSK-3β, phospho-FKHRLI (Thr32)/-FKHR (Thr24), phospho-FKHR (Ser256) primary antibodies were obtained from Cell Signaling Technology (Beverly, Mass.). Total MKK3, total MKK6, total p38, total ATF-2, total c-Raf, total FKHR, total FKHRLI, phospho-JNK and total JNK were purchased from Santa Cruz Biotechnology (Santa Cruz, Calif.). Caspase 3, caspase 9, and PARP antibodies were obtained from Pharmingen (San Diego, Calif.) and anti-MKP1 from Upstate (Lake Placid, N.Y.). Anti-caspase 8 mouse serum was a generous gift of Dr. Marcus Peter (University of Chicago).
MM.1 S cells were exposed to 10 μM 8-NH2-Ado for 0, 0.5, 1, 2, 4 and 6 hours, after which cells were lysed as previously (Example 2). 30 μg of protein was separated by gel electrophoresis, transferred to PVDF membrane, and probed with phosphorylation-specific antibodies to MKK3/6, p38 MAPK, ATF-2, MEK1/2, ERK1/2, p90RSK, JNK1, PDK1, Akt, FKHRL1 and GSK-3β.
MM. I S cells were treated with 10 μM 8-chloro-adenosine for 0, 0.5, 1, 2, 4 or 6 hours or 10 μM of cytarabine, fludarabine, gemcitabine or 8-amino-adenosine for 4 hours. Cells were lysed as previously described and 30 μg of protein was separated by gel electrophoresis, transferred to PVDF membrane, and probed with phospho-p38 MAPK (Thr180/Tyr182) antibody.
MM.1 S cells were grown in dextrose-free media and treated with 2 μM Antimycin A, 5 mM 2-DOG, and varying concentrations of dextrose for 90 minutes. Cellular ATP levels were determined using triplicate samples in a luciferase based assay and are expressed here as a percentage of untreated control.

[2] = system: MKK3/6; experiment: Immunoblot of phospho-MKK3/6 in MM.1 S cells; type: cell-based; conditions: 10 μM
Experimental: (§1) 5×10^6 were cells treated with 10 μM 8-NH2-Ado for the indicated times and harvested. Cell pellets were washed with cold phosphate-buffered saline (PBS; 8.1 g NaCl, 1.14 g Na2HPO4, 0.22 g KCl, and 0.25 g/L KH2PO4) and incubated with lysis buffer (50 mM HEPES, 150 mM NaCl, 1.5 mM MgCl2, 1 mM EDTA pH 8.0, 100 mM NaFI, 10 mM Na Pyrophosphate, 500 μM PMSF, 0.5% Triton X-100, 10% glycerol) at 4° C. for one hour. Lysates were centrifuged at 4° C. for 1 minute at 9000×g, and the supernatants were collected and stored at −20° C. Protein concentration was determined by Bio-Rad protein assay (BioRad Laboratories, Hercules, Calif.). Protein, at a concentration of 30 μg, was mixed with sample buffer (125 mM Tris, pH 6.8, 4% SDS, 20% glycerol, 100 mM Dithiothreitol (DTT), and 0.05% bromophenol blue), and fractionated on a pre-cast 8-16% Tris-Glycine gel (Invitrogen/Novex, Carlsbad, Calif.). Proteins were then transferred to a Polyvinylidene Fluoride (PVDF) membrane (Immobilon-P, Millipore, Bedford, Mass.): Following protein transfer, membranes were blocked with 5% non-fat milk in PBS-T (PBS with 0.1% Tween), incubated with the primary antibody overnight at 4° C. and subsequently with horseradish peroxidase linked secondary antibody (Amersham, Arlington Heights, Ill.). […]

[3] = system: FKHR; experiment: Immunoblot of phospho-FKHR in MM.1 S cells; type: cell-based; conditions: 10 μM, data not shown
Experimental: as §1

[4] = system: MM cells; conditions: cited from earlier work
[5] = system: caspase 8; experiment: Caspase 8 activation immunoblot in MM.1 S cells; type: cell-based; conditions: 10 μM
Experimental: as §1, with “Calif.).” for “Calif.). Proteins were then transferred to a Polyvinylidene Fluoride (PVDF) membrane (Immobilon-P, Millipore, Bedford, Mass.): Following protein transfer, membranes were blocked with 5% non-fat milk in PBS-T (PBS with 0.1% Tween), incubated with the primary antibody overnight at 4° C. and subsequently with horseradish peroxidase linked secondary antibody (Amersham, Arlington Heights, Ill.).”
MM.1 S cells were exposed to 10 μM 8-NH2-Ado for 0, 0.5, 1, 2, 4 or 6 hours, after which cells were lysed as previously described. […] Total protein levels were also assessed to ensure equal loading and transfer (data not shown). […]

[6] = system: p38 in RPMI-8226, MDR10V and MM.1 R cells; experiment: Phosphorylation of p38 in additional myeloma cell lines; type: cell-based; conditions: data not shown
Experimental: as §1, with “Calif.).” for “Calif.). Proteins were then transferred to a Polyvinylidene Fluoride (PVDF) membrane (Immobilon-P, Millipore, Bedford, Mass.): Following protein transfer, membranes were blocked with 5% non-fat milk in PBS-T (PBS with 0.1% Tween), incubated with the primary antibody overnight at 4° C. and subsequently with horseradish peroxidase linked secondary antibody (Amersham, Arlington Heights, Ill.).”
The effect of 8-NH2-Ado treatment on phosphorylation levels was assessed in additional myeloma cell lines, to determine whether the drug-induced alterations in protein phosphorylation occur in multiple cells lines or are limited to the MM.1 S myeloma cell line.

[7] = system: MEK1/2; experiment: Immunoblot of phospho-MEK1/2 in MM.1 S cells; type: cell-based; conditions: 10 μM, 0-6 hours
Experimental: as §1

[8] = system: p90RSK; experiment: Immunoblot of phospho-p90RSK in MM.1 S cells; type: cell-based; conditions: 10 μM, 0-6 hours
Experimental: as §1

[9] = system: PTEN; experiment: Immunoblot of PTEN (total and phospho) in MM.1 S cells; type: cell-based; conditions: 10 μM, 0-6 hours
Experimental: as §1, with “Calif.).” for “Calif.). Proteins were then transferred to a Polyvinylidene Fluoride (PVDF) membrane (Immobilon-P, Millipore, Bedford, Mass.): Following protein transfer, membranes were blocked with 5% non-fat milk in PBS-T (PBS with 0.1% Tween), incubated with the primary antibody overnight at 4° C. and subsequently with horseradish peroxidase linked secondary antibody (Amersham, Arlington Heights, Ill.).”
In addition, the effect of 8-NH2-Ado treatment on PTEN, which encodes a key phosphatase involved in the negative regulation of the PI3K/Akt signaling pathway was assessed (FIG. 5B). […]

Compound: Nc1ncnc2c1nc(N)n2[C@@H]1O[C@H](CO)[C@@H](O)[C@H]1O [8-NH2-Ado, 8-amino-adenosine]
- phosphorylation of ERK1/2 ([1]; 4 hours, data not shown): dramatic loss of phosphorylation
- Phosphorylation of the ERK1/2 kinases ([1]; by 30 minutes): decreases significantly
- Phosphorylation of the ERK1/2 kinases ([1]; by 2 hours): declines to negligible levels
- Phosphorylated MKK3/6 protein levels ([2]; by 2 hours): decrease significantly
- Phosphorylated MKK3/6 protein levels ([2]; by 6 hours): negligible
- FKHR phosphorylation [3]: similarly affected
- cytotoxicity [4]: affected by the cytotoxic ability
- time at which cleaved and activated caspase 8 appears [5]: 2 to 4 h
- Phosphorylation levels of p38 [6]: decrease in a dose-dependent manner
- phosphorylation levels of MEK1/2 [7]: appear to increase
- phosphorylation level of p90RSK [8]: modestly decrease
- total and phospho-PTEN levels [9]: unaltered

— patent US20090082304A1, “Methods of Treating Hematological Malignancies with Nucleoside Analog Drugs” (NORTHWESTERN UNIVERSITY, priority 2004, published 2009)
